Key:
[1] = target: Phosphatidylinositol 4,5-bisphosphate 3-kinase catalytic subunit beta isoform (Homo sapiens, UniProt P42338); assay: KINOMEscan Enzyme Binding Assays
Method: (§1) Kinase enzyme binding affinities of compounds disclosed herein were determined using the KINOMEscan technology performed by DiscoveRx Corporation, San Diego, Calif., USA (www.kinomescan.com).

[2] = target: Phosphatidylinositol 4,5-bisphosphate 3-kinase catalytic subunit alpha isoform (Homo sapiens, UniProt P42336); assay: KINOMEscan Enzyme Binding Assays
Method: as §1

Sequence of Phosphatidylinositol 4,5-bisphosphate 3-kinase catalytic subunit beta isoform (P42338 whole entry, canonical isoform): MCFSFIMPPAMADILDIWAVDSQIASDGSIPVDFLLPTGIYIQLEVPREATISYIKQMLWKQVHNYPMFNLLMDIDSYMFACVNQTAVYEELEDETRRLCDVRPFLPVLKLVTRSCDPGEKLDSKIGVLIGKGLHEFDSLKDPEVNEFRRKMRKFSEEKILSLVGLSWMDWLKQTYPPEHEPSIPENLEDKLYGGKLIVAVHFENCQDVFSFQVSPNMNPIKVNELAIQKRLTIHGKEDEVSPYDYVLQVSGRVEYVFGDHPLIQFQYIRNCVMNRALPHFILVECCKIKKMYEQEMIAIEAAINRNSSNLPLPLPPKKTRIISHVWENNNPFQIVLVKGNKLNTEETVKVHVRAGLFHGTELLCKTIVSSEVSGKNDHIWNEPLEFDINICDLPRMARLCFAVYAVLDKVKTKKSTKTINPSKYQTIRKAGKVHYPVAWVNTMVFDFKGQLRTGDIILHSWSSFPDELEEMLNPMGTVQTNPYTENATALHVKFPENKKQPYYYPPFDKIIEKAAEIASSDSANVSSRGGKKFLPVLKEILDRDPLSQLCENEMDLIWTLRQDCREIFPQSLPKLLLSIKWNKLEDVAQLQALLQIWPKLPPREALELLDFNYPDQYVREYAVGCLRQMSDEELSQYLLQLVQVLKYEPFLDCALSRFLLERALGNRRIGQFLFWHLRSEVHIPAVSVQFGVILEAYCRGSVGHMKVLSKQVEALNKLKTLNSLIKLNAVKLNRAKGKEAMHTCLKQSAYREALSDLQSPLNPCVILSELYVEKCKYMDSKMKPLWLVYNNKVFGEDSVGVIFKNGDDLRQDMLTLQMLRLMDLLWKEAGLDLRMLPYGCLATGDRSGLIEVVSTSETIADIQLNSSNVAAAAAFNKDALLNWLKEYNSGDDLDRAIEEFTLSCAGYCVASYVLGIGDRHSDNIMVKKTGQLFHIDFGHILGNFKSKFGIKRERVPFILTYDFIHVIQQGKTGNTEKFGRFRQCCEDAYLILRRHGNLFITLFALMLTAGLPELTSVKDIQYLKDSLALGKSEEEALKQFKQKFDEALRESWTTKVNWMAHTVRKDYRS
Sequence of Phosphatidylinositol 4,5-bisphosphate 3-kinase catalytic subunit alpha isoform (P42336 whole entry, canonical isoform): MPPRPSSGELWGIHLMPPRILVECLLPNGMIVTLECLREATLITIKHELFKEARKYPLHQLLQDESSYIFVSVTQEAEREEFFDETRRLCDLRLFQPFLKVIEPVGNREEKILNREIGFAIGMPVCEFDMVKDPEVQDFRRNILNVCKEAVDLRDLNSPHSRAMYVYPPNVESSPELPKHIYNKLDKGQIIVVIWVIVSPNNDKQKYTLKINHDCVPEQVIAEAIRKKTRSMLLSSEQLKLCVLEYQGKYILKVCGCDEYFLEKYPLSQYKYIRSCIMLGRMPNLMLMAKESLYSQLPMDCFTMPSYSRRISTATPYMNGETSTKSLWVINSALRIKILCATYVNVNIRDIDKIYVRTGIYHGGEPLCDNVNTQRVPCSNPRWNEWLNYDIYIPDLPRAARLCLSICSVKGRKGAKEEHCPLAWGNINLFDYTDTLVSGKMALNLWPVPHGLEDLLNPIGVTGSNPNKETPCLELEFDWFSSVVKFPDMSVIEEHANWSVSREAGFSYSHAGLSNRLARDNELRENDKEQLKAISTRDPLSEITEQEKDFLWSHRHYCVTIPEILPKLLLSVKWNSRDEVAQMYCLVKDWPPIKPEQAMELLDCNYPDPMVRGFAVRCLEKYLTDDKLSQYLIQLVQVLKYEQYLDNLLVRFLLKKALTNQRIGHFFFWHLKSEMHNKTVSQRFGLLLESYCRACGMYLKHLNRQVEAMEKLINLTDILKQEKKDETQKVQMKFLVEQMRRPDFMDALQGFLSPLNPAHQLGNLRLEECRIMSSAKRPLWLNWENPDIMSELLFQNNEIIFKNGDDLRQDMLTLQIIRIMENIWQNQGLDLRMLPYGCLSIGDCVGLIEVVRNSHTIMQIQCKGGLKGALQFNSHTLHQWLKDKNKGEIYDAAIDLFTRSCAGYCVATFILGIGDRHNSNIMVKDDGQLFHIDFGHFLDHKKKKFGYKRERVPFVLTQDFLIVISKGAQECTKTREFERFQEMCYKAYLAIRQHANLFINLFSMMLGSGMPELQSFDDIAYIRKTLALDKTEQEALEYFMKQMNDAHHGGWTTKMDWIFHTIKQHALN

Row | Kd [1] [nM] | Kd [2] [nM] | SMILES
1 | 6.2 | 5890 | CCc1c(F)cccc1Cc1c(CNCCO)nc2c(N)cc(N3CCOCC3)nn12 [US10087187, Compound 101]
2 | 1.9 | 886 | Cc1c(Cc2c(CO)nc3c(-c4cnc[nH]4)cc(N4CCOCC4)nn23)cccc1C(F)(F)F [US10087187, Compound 19]

Source: BindingDB's records for patent US10087187 (Janssen Pharmaceutica, 2018)
